One assay addresses T1, OR10A6 (Homo sapiens, UniProt Q8NH74).
T1 construct: expressed in transfected cells; host or cells: HEK293
T1 sequence (Q8NH74 1-314): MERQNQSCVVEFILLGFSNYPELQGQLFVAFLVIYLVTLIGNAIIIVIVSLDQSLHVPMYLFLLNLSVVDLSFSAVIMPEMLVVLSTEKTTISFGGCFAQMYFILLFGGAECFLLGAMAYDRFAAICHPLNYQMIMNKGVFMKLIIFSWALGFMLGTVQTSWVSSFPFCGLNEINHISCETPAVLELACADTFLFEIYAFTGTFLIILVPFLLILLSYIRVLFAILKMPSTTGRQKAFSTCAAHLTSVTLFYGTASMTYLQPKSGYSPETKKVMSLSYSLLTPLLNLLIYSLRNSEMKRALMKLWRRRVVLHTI
The experiment in a line: Luciferase reporter gene assay, OR10A6 expressed in HEK293 cells. The format is cell-based. The note with it: response to hexanoic acid; test substance added together with hexanoic acid; HEK293. The method, then:
(§1) Cloning of human olfactory receptors was performed based on the sequence information registered in GenBank, through PCR with human genomic DNA female (G1521: Promega) as a template. Each of the genes amplified through PCR was inserted into a pENTR vector (Invitrogen) according to an instruction manual. Then, the gene-inserted vector was digested with NotI and AscI, and the obtained fragments were inserted into NotI and AscI sites located downstream of the Flag-Rho tag sequence in the pME18S vector.
(§2) Each of the 350 types of human olfactory receptors was expressed in HEK293 cells. A reaction solution having a composition shown in Table 2 was prepared on a clean bench, and left to stand for 15 minutes. The solution was dispensed to each well of a 96-well plate (BD). Subsequently, […] cells (100 μL, 3×10^5 cells/cm^2) were seeded in each well and cultured for 24 hours in an incubator at 37° C. and under 5% CO2 conditions.
(§3) The olfactory receptor expressed in HEK293 cell was conjugated with cell-intrinsic Gas to activate adenylate cyclase, and thereby the level of intracellular cAMP was increased. For the measurement of the response to odor in this study, the luciferase reporter gene assay was used, in which an increase in the amount of intracellular cAMP was monitored by using the emission value originating from firefly luciferase gene (fluc2P-CRE-hygro) as an indicator. Furthermore, a gene product obtained by fusing renilla luciferase gene in the downstream of CMV promoter (hRluc-CMV) was simultaneously introduced, and this was used as an internal standard for correcting an error in the transgenesis efficiency or the number of cells. The medium was removed from the culture prepared in the above-described section 3) by using a Pipetman, and 75 μl of a solution containing an odor substance (1 mM hexanoic acid or 300 μM nonanoic acid) prepared in CD293 medium (Invitrogen) was added thereto. The cells were cultured for 4 hours in a CO2 incubator, and the luciferase gene was sufficiently expressed in the cells. For the measurement of luciferase activity, the measurement was carried out by using a Dual-Glo™ luciferase assay system (Promega) according to the operation manual of the product. A value calculated by dividing the emission value, derived from a firefly luciferase induced by the stimulation with an odor substance, by the emission value in cells that were not-stimulated with an odor substance, was designated as a fold increase, and used as an index of response intensity.
(§4) OR2W1, OR10A6, OR51E1, OR51I2, and OR51L1 were respectively expressed in HEK293 cells by the same method as that used in Example 1, and a luciferase assay was carried out. In the luciferase assay, hexanoic acid was used as the odorous substance, and test substances were added together with hexanoic acid. The response of the olfactory receptors to hexanoic acid was measured, and a decrease in the receptor response to the addition of test substances was evaluated.
(§5) The inhibition ratios of the receptor response to test substances were calculated as follows. The emission value (Y) obtained from the cells in which the same receptors were introduced but no odor stimulation was conducted, was subtracted from the emission value derived from firefly luciferase (X) induced by odor stimulation with hexanoic acid alone. Similarly, the emission value (Y) obtained from the cells in which no odor stimulation was conducted, was subtracted from the emission value (Z) caused by stimulation with a mixture of hexanoic acid and a test substance. By the following calculation formula, the inhibitory activity of the test substance to receptor response was calculated based on the increment of the emission value (X−Y) caused by stimulation of hexanoic acid alone. Multiple independent experiments were performed in duplicate, and the average of each experiment was obtained. Inhibition ratio (%)={1−(Z−Y)/(X−Y)}×100
(In general: In a reporter assay the amount or activity of a reporter protein is the signal.)

Another assay deals with T2, OR2W1 (Homo sapiens, UniProt Q9Y3N9).
T2 construct: expressed in transfected cells; host or cells: HEK293
T2 sequence (Q9Y3N9 1-320): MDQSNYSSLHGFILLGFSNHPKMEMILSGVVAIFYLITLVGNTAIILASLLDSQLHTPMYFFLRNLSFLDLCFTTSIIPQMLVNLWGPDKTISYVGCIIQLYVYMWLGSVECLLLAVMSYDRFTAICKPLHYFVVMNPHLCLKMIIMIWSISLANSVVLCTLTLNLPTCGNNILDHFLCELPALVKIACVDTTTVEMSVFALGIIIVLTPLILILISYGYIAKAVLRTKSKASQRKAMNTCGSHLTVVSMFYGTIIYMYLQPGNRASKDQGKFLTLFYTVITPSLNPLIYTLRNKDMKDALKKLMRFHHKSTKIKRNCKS
Nature of the assay: Luciferase reporter gene assay, OR2W1 expressed in HEK293 cells. The assay is classed as cell-based. As to the method:
as §1, §2, §3, §4
as §5, with “(%)={1−(Z−Y)/(X−Y)}×100 […]” for “(%)={1−(Z−Y)/(X−Y)}×100”

Another assay has as its target T3, OR51E1 (Homo sapiens, UniProt Q8TCB6).
T3 construct: expressed in transfected cells; host or cells: HEK293
T3 sequence (Q8TCB6 1-318): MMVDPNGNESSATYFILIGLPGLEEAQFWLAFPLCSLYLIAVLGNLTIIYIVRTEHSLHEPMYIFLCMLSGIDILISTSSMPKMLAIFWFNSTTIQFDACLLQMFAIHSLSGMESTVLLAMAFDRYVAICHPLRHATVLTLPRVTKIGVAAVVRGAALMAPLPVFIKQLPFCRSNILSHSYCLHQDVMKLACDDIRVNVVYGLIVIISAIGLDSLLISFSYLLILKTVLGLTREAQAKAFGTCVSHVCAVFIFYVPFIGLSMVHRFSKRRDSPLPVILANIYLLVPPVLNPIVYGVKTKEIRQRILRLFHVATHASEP
The experiment in a line: Luciferase reporter gene assay, OR51E1 expressed in HEK293 cells. The format is cell-based. The method, then: as §1, §2, §3, §4
as §5, with “(%)={1−(Z−Y)/(X−Y)}×100 […]” for “(%)={1−(Z−Y)/(X−Y)}×100”

The target of a further assay is T4, OR51L1 (Homo sapiens, UniProt Q8NGJ5).
T4 construct: expressed in transfected cells; host or cells: HEK293
T4 sequence (Q8NGJ5 1-315): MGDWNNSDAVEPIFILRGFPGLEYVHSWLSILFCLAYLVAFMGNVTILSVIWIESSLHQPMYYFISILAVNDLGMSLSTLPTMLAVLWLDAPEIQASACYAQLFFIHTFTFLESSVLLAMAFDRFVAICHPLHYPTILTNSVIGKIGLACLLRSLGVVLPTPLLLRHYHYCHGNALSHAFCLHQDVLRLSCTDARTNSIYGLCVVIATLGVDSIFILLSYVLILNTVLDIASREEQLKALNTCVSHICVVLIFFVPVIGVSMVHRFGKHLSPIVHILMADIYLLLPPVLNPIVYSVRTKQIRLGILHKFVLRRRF
The experiment in a line: Luciferase reporter gene assay, OR51L1 expressed in HEK293 cells. The format is cell-based. The method, then:
as §1, §2, §3, §4
as §5, with “(%)={1−(Z−Y)/(X−Y)}×100 […]” for “(%)={1−(Z−Y)/(X−Y)}×100”

Another assay addresses T5, OR51I2 (Homo sapiens, UniProt Q9H344).
T5 construct: expressed in transfected cells; host or cells: HEK293
T5 sequence (Q9H344 1-312): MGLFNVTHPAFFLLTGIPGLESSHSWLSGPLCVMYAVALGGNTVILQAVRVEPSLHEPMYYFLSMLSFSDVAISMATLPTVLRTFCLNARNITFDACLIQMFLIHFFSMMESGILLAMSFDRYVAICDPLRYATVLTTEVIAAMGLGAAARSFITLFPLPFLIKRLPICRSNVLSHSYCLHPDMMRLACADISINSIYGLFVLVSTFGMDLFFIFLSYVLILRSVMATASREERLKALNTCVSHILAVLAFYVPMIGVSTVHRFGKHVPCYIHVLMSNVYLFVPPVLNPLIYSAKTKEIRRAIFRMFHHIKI
Nature of the assay: Luciferase reporter gene assay, OR51I2 expressed in HEK293 cells. The assay is classed as cell-based. As to the method: as §1, §2, §3, §4
as §5, with “(%)={1−(Z−Y)/(X−Y)}×100 […]” for “(%)={1−(Z−Y)/(X−Y)}×100”

The nature of assay [1]: Sensory evaluation test of hexanoic acid odor inhibition. The assay is classed as in vivo. The note with it: for Intensity of odor: hexanoic acid odor, malodor alone rated as 5, 0 to 10 points, test substance diluted 100 times with propylene glycol, three panelists; for Inhibition of hexanoic acid odor (in words): sensory test, test substance diluted 100 times with propylene glycol (FIG. 5, Table 4). The method, then: Cotton balls were introduced into a glass bottle (Hakuyo Glass Co., Ltd. No. 11, capacity 110 ml), and hexanoic acid diluted 100 times with propylene glycol, nonanoic acid diluted 10 times with propylene glycol, or isovaleric acid diluted 1000 times with propylene glycol, as a malodor, and a test substance were added dropwise in an amount of […] to the cotton balls. The glass bottle was left to stand overnight at room temperature, and the odor molecules were sufficiently volatilized in the glass bottle. A sensory evaluation test was carried out by a panel of three panelists (5 panelists for isovaleric acid), and while the intensity of odor in the case of adding dropwise the malodor alone was rated as 5, the intensity of the malodor in the case of incorporating a test substance was evaluated on the basis of a system of 20 grades from 0 point to 10 points (0.5 points per grade).
Regarding the test substance, florhydral (Givaudan SA), bourgeonal (Givaudan SA), hydroxycitronellal (Givaudan SA, International Flavors & Fragrances, Inc., and the like), 4-isopropylcyclohexanecarbaldehyde (synthesized according to a method described in JP-A-2-188549), 4-(2-methoxyphenyl)-2-methyl-2-butanol (JP-A-9-111281), florosa (Givaudan SA), isocyclocitral (Givaudan SA, International Flavors & Fragrances, Inc., and the like), tripral (International Flavors & Fragrances, Inc.), and Pollenal II (Kao Corp.), which had been diluted 100 times with propylene glycol, were used for hexanoic acid; florhydral that had been diluted 10 times with propylene glycol was used for nonanoic acid; and florhydral that had been diluted 1000 times with propylene glycol was used for isovaleric acid.

Setting [2] is: 1 mM hexanoic acid, test substance 3, 10, 30, 100, 300 μM (FIG. 4).
Where [3] appears, read: response to hexanoic acid, test substance added together with hexanoic acid, HEK293.

As for `CC(C)C1CCC(C)(C=O)CC1` (centres unmarked) [4-isopropyl-1-methylcyclohexanecarbaldehyde], the “Inhibition ratio of OR10A6 response” value on OR10A6 is recorded as 1 (Inhibition ratio: 50% or higher).

As to `CC(C)(C)c1ccc(CCC=O)cc1` [Bourgeonal, 3-(4-tert-butylphenyl)propanal], the “Inhibition of OR2W1 response to hexanoic acid (in words)” value on OR2W1 (setting [2]) was “in a concentration-dependent manner”. Moreover, the “Inhibition ratio of OR2W1 response” value on OR2W1 (setting [3]) is on record as 1 (Inhibition ratio: 50% or higher). The “Inhibition of OR51E1 response to hexanoic acid (in words)” value at OR51E1 (setting [2]) is “in a concentration-dependent manner”. For the same compound, the “Inhibition ratio of OR51E1 response” value at OR51E1 (setting [3]) is reported as 1 (Inhibition ratio: 50% or higher). Further, the “Inhibition of OR51L1 response to hexanoic acid (in words)” value on OR51L1 (setting [2]) is “in a concentration-dependent manner”. For the same compound, the “Inhibition ratio of OR51L1 response” value on OR51L1 (setting [3]) is 1 (Inhibition ratio: 50% or higher). The “Inhibition of OR51I2 response to hexanoic acid (in words)” value at OR51I2 (setting [2]) was “in a concentration-dependent manner”. In addition, the “Inhibition ratio of OR51I2 response” value on OR51I2 (setting [3]) is recorded as 1 (Inhibition ratio: 50% or higher). In addition, in assay [1], the Intensity of odor came out at 3.13 and the “Inhibition of hexanoic acid odor (in words)” value is on record as “markedly inhibited”.

On to `CC(C)CC1CC(C)(O)CCO1` (centres unmarked) [Florosa, tetrahydro-4-methyl-2-(2-methylpropyl)-2H-pyran-4-ol], for which the “Inhibition ratio of OR10A6 response” value on OR10A6 is on record as 2 (Inhibition ratio: 20% to 50%). In assay [1], the Intensity of odor was 3.38 and the “Inhibition of hexanoic acid odor (in words)” value is “inhibit the hexanoic acid odor”.

Source of the values: patent US9526680B2, “Method for searching for malodor control agent, malodor control agent, and malodor control method” (Kao Corporation, priority 2010, dated 2016).
